From US20190314312A1, “COMBINATION THERAPY TO INCREASE ENDOGENOUS NITRIC OXIDE (NO) SYNTHESIS” (Yeda Research and Development Co. Ltd., priority 2016, published 2019) come the findings set out here.

“Also recorded” adds a separate entry of the source.

Assay type in all cases: in vivo, mouse
In one test the test system is As1. In words: Immunohistochemistry staining of distal colon sections for As1. The settings on record: after colitis induction, vs control mice with colitis; FIG. 3E, 4A. Here is the method:
Four micrometer paraffin embedded tissue sections were deparaffinized and rehydrated. Endogenous peroxidase was blocked with three percent H2O2 in methanol. Sections undergoing for ALS staining were incubated in cold acetone at −20° C. for 7 minutes. For F4/80 and MAC-2 staining, the present inventors performed antigen retrieval in Tris-EDTA pH 9 and 10 mM citric acid pH 6, for 10 minutes, respectively, using a low boiling program in the microwave to break protein cross-links and unmask antigens. After pre-incubation with 20% normal horse serum and 0.2% Triton X-100 for 1 hour at RT (root temperature), sections were incubated with the primary antibodies as follow; ASL (1:100, Abcam, ab97370, CA, USA); F4/80 (1:50, Serotec, Kidllington, UK); Mac-2 (1:400, Cedarlane, N.C., USA). For fluorescent double-staining of ASL and CD11c the mouse anti ASL (1:50 Santa Cruz Biotechnology, Inc. sc-166787, TX, USA) and rabbit anti CD11c (1:50, ab52632) were used. All antibodies were diluted in PBS containing 2% normal horse serum and 0.2% Triton. Sections were incubated overnight at RT followed by 48 hours at 4° C. Sections were washed three times in PBS and incubated with secondary biotinylated IgG at RT (room temperature) for 1.5 hour, washed three times in PBS and incubated with avidin-biotin Complex (Elite-ABC kit, Vector Lab, CA, USA) at RT for additional 90 minutes followed by DAB (Sigma) reaction. For the fluorescent staining the CY2 conjugated anti mouse and CY3 conjugated streptavidin (1:100 and 1:200 respectively, Jackson ImmunoResearch, West Grove, Pa.) were used.

In test [1] the test system is C57BL/6J.OlaaHsd mice. In words: DSS-induced colitis, treatment with arginine, citrulline, NaNO2, fisetin or citrulline plus fisetin. Particulars: for weight loss: 1% DSS 6 days; for Histology score for colitis: FIG. 3D; for clinical improvement in colitis severity: evaluated by change in weight, histological score and colon length, vs control. Here is the method: Colitis was induced in Vav1^Cre:As1^f/f mice and CD11c^Cre:As1^f/f with 1.5% DSS and with 0.8% DSS in the Villin^Cre:As1^f/f (wt/vol), (Dextran Sodium Sulfate, MP Biomedicals; molecular weight 36,000-50,000 Da). The powder was dissolved in the drinking water for 6 days, followed by 5 days of supplementing regular water^20. Each group consisted of eight to ten, 8-10 weeks old, male mice. Experiments were repeated at least three times. “f/f”—flox/flox.
Colonoscopy was performed on days 7 and 11 of the experiment to monitor for severity of colitis. For the procedure, a high resolution mouse video endoscopic system was used, which consists of a miniature endoscope (scope 1.9 mm outer diameter), a xenon light source, a triple chip camera, and an air pump to achieve regulated inflation of the mouse bowel (Karl Storz, Tuttlingen, Germany). Mice were anesthetized by the administration of 4-5% of isoflurane in 100% oxygen at a rate of 0.2-0.5 L/min or by the administration of 100 mg/kg Ketamine/10 mg/kg Xylazine mixture IP, after which, the endoscope was introduced via the anus and the colon was carefully insufflated with an air pump before analysis of the colonic mucosa. The endoscopic procedure was viewed on a color monitor and digitally recorded on tape. Colitis was scored according to the Murine endoscopic index of colitis severity (MEICS), considering differences in the thickness of the bowel wall, changes in blood vessel integrity, mucosal surface, stool consistency or the presence of fibrin, scored each between 0 and 3. The cumulative score ranged from 0 (no signs of inflammation) to 15 (signs of severe inflammation)^21.
Mice were treated with 1% (wt/vol) DSS for 6 days, followed by administration of either arginine 1% (wt/vol) solution (Sigma-Aldrich, St. Louis, Mo., catalogue number A8094) in drinking water, citrulline 1% (wt/vol) (L-citrulline, Chem-Impex International), NaNO2 100 mg (Sigma-Aldrich, St. Louis, Mo., catalogue number S2252), or water as control for additional 6 days.
Fisetin was given by intraperitoneal (i.p.) injection (1 mg/animal) in 30 μL of DMSO twice weekly. The control group was injected with 30 μL of DMSO twice weekly. Each group consisted of ten, 8-weeks old, male mice. Experiments were repeated three times.
Histopathology. On the day of sacrifice, colons were removed and their length was measured. Colon was fixed in 2.5% PFA solution overnight at 4° C., then embedded in paraffin, sectioned and stained with H&E. Tissues were examined in a blinded manner by a pathologist and scored on a 0-4 scale based on the parameters of inflammation severity^20.

For test [2], the system named is C57BL/6J.OlaaHsd mice. The description is as above. The settings on record: day 12.
The subject of another test is enterocytes. In words: FACS analysis of colon epithelial cells (enterocytes) after colitis induction. Here is the method: Colon segment was flushed with cold PBS, longitudinally cut open and rinsed to remove residual luminal contents. Tissue was cut into 3- to 5-mm pieces and incubated in HBSS medium containing EDTA 0.5 M and Hepes 10 mM at 37° C. for 20 minutes, shaken at 180 rpm, to separate epithelial fraction. Supernatant was centrifuged at 4° C. at 500 g for 10 minutes. Recovered tissue was digested in HBSS medium with 2% fetal bovine serum (FBS), 0.05% collagenase II and 0.05% DNase I (Sigma) for 40 minutes. at 37° C., shaken at 180 rpm. LP cells were filtered through 65 μm mesh and centrifuged at 4° C. at 500 g for 10 minutes. The present inventors prepared single cell suspensions from mouse colon by enzymatic digestion and analyzed by polychromatic flow cytometry. Samples were stained with conjugated antibodies or matching isotype controls according to manufacturer's instructions. Data were acquired on an LSRII (BD Biosciences) or FACSCalibur instrument (Becton-Dickinson) with CellQuest software, with a MacsQuant instrument (Miltenyi, Bergisch Gladbach, Germany), and analyzed using BD FACSDiva 6 or FlowJo software (version 7.6.5, or version vX.0.7 Tree Star Inc) or MacsQuant. Colon cells were stained for 30 min at 4° C. in flow cytometry buffer (PBS, 10% FCS and 0.02% azide). For antigens that require intracellular staining (As1, iNOS and S-nitrosocystein), cell surface staining was followed by cell fixation and permeabilization with the Cytofix/Cytoperm kit (BD Biosciences) according to the manufacturer's instructions. For staining, the present inventors used a lineage cocktail of antibodies anti-CD45-APC, Anti-CD64-PE, Anti-CD11c-PB, Anti-326-APC cy7, Anti CD31-PE cy7 (all from BioLegend). After staining for cell surface antigens, intracellular NO was detected by incubation of cells for 15 min at 37° C. with 10 μM DAF-FM diacetate followed by extensive washing, according to the manufacturer's instructions (Molecular Probes). Staining without addition of the DAF-FM probe was considered to be the baseline for gating the positive population. As1 was detected using anti-As1-ALEXA FLUOR® 488 (BD Biosciences), iNOS using anti-iNOS followed by anti-rat 488 (Jackson ImmunoResearch), and nitrosylation using anti-S-nitrosocystein (from abcam) followed by anti-mouse 488 (Jackson ImmunoResearch).
A general note: Flow cytometry measures light scatter and fluorescence of single cells or particles in a stream.

Another test concerns intestine. In words: Tunnel staining of intestine (apoptosis). The settings on record: colitis mice, citrulline vs control; FIGS. 3F-H. Here is the method:
Tunnel staining was performed by using ApopTag kit detection according to manufacturer's instructions (Millipore, CA, USA). Stained sections were examined and photographed by a fluorescence or bright field microscope (Eclipse Ni-U; Nikon, Tokyo, Japan) equipped with Plan Fluor objectives (10; 20×; 40×) connected to a monochrome camera (DS-Qi1, Nikon).

The mark [3] stands for this setting: then arginine 1%, citrulline 1% or NaNO2 100 mg in drinking water 6 days vs water control, FIG. 3A.
Setting [4] is: arginine, citrulline or NaNO2 vs water control, FIG. 3C.
Where [5] appears, read: arginine, citrulline or NaNO2 vs water control.
The mark [6] stands for this setting: arginine, citrulline or NaNO2 vs water control, FIG. 3B.

With `O=N[O-].[Na+]` [NaNO2], the “As1 expression in distal colon sections (intestine, enterocytes)” value (“As1 expression in distal colon sections” below) in the test with As1 was “reduced expression”. The weight loss result with C57BL/6J.OlaaHsd mice [1] (setting [3]) is reported as “significant weight loss reduction in the control group compared to the three treatments”. Further, in the test on C57BL/6J.OlaaHsd mice [1] (setting [4]), the colon length result is reported as “significant reduction in colon length in the control group as compared to the treated colons”. The “Histology score for colitis” value in the test on C57BL/6J.OlaaHsd mice [1] (setting [5]) is “significantly lower”. Besides, the “clinical improvement in colitis severity” value in the test on C57BL/6J.OlaaHsd mice [1] (FIG. 3A-D) was “significant clinical improvement”. The endoscopic colitis score entry in the test on C57BL/6J.OlaaHsd mice [2] (setting [6]) is reported as “Significant improvement”.

`N=C(N)NCCC[C@H](N)C(=O)O` [arginine]: in the test with As1, the “As1 expression in distal colon sections” value was “upregulated”. The weight loss result in the test on C57BL/6J.OlaaHsd mice [1] (setting [3]) is reported as “significant weight loss reduction in the control group compared to the three treatments”. For the same compound, the colon length result in the test with C57BL/6J.OlaaHsd mice [1] (setting [4]) is reported as “significant reduction in colon length in the control group as compared to the treated colons”. Further, the “Histology score for colitis” value with C57BL/6J.OlaaHsd mice [1] (setting [5]) is “significantly lower”. Moreover, in the test on C57BL/6J.OlaaHsd mice [1] (FIG. 3A-D), the “clinical improvement in colitis severity” value was “significant clinical improvement”. The endoscopic colitis score entry with C57BL/6J.OlaaHsd mice [2] (setting [6]) is reported as “Significant improvement”.

`NC(=O)NCCCC(N)C(=O)O` (stereo not drawn) [citrulline, 2-Amino-5-(carbamoylamino)pentanoic acid]: in the test with As1, the “As1 expression in distal colon sections” value was “upregulated; also recorded: more pronounce expression”. Further, in the test on enterocytes (FIGS. 3I-J), the “induction of NO synthesis in enterocytes, citrulline compared with arginine” value is recorded as “more effective than arginine”. For the same compound, the “NO levels in enterocytes (colon epithelial cells)” value with enterocytes (after colitis induction, treated vs control, FIGS. 3F-J, 4F-I) is “increased generation of NO”. In addition, the weight loss entry is reported as “significant weight loss reduction in the control group compared to the three treatments” in the test with C57BL/6J.OlaaHsd mice [1] (setting [3]) and “significant weight loss is documented in the control group compared to the treated mice” in the test with C57BL/6J.OlaaHsd mice [1] (then fisetin 1 mg IP twice, citrulline 1% in drinking water or both vs DMSO control, FIG. 4B). In the test on C57BL/6J.OlaaHsd mice [1] (FIG. 3A-D), the “effectiveness in alleviating colitis severity compared among arginine, citrulline and NO donor” value was “the most effective”. Also, the colon length result is given as “significant reduction in colon length in the control group as compared to the treated colons” in the test with C57BL/6J.OlaaHsd mice [1] (setting [4]) and “significant longer” with C57BL/6J.OlaaHsd mice [1] (fisetin, citrulline or both vs DMSO control, FIG. 4D). For the same compound, the “Histology score for colitis” value in the test with C57BL/6J.OlaaHsd mice [1] (setting [5]) is “significantly lower”. In addition, the “clinical improvement in colitis severity” value with C57BL/6J.OlaaHsd mice [1] (FIG. 3A-D) was “significant clinical improvement”. Further, the histological score result with C57BL/6J.OlaaHsd mice [1] (fisetin, citrulline or both vs DMSO control, FIG. 4E) is “significant reduction”. Also, the “apoptosis in the intestine” value in the test with intestine was “decreased apoptosis; also recorded: increased apoptosis in the control intestine as compare to colon taken from mice treated with citrulline”. The “endoscopic colitis score, citrulline in comparison to arginine” value with C57BL/6J.OlaaHsd mice [2] (FIG. 3B) is reported as “more beneficial treatment”. For the same compound, the endoscopic colitis score result is “Significant improvement” in the test on C57BL/6J.OlaaHsd mice [2] (setting [6]) and “significant improvement” in the test on C57BL/6J.OlaaHsd mice [2] (fisetin, citrulline or both vs DMSO control, FIG. 4C).
